From PubChem BioAssay (NCI)
Values joined by “and” are separate entries in the source; they are usually repeats but may differ in a detail not shown here. Equal values may be shown once.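 A five-concentration, 48-hour dose response in 96-well plates underlies each endpoint, interpolated linearly between surrounding concentrations. The concentration for 50% growth inhibition is given as GI50. TGI is the concentration that stops growth completely.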

Key:
Assay in all cases: growth of human tumour cells (NCI), 48 h
[1] = system: A498 renal
[2] = system: HCT-116 colon
[3] = system: KM12 colon
[4] = system: MDA-MB-231 breast
[5] = system: OVCAR-4 ovarian
[6] = system: TK-10 renal
[7] = system: UACC-62 melanoma
[8] = system: NCI-H23 lung
[9] = system: NCI-H226 lung
[10] = system: SR leukemia

Compound | GI50 [1] | TGI [1] | GI50 [2] | TGI [2] | GI50 [3] | TGI [3] | GI50 [4] | TGI [4] | GI50 [5] | TGI [5] | GI50 [6] | TGI [6] | GI50 [7] | TGI [7] | GI50 [8] | TGI [8] | GI50 [9] | GI50 [10] | TGI [9] | TGI [10]
C[C@@H]1C[C@H](N)C[C@H](c2ccncc2NC(=O)c2ccc(F)c(-c3c(F)cccc3F)n2)C1 | 11.6 µM and 4.53 µM | 24.8 µM and > 10 µM | 12.1 µM and 6.94 µM | 24.4 µM and > 10 µM | 12.3 µM and > 10 µM | 27.7 µM and > 10 µM | 12.8 µM and 4.01 µM | 26.8 µM and > 10 µM | 9.39 µM and > 10 µM | 22 µM and > 10 µM | 13.1 µM and > 10 µM | 26.8 µM and > 10 µM | 14.3 µM and > 10 µM | 28.2 µM and > 10 µM |  |  |  |  |  | 
CC1=C([Te]c2ccccc2)C(=O)c2ccccc2C1=O | 0.239 µM | 0.977 µM | 0.284 µM | 0.901 µM | 0.337 µM | 1.21 µM | 0.227 µM | 0.573 µM | 1.63 µM | 3.53 µM | 1.71 µM | 4.05 µM | 1.43 µM | 3.8 µM | 0.298 µM | 1.05 µM |  |  |  | 
Nc1ncc(-c2ccc3ncnc(Nc4cccc(Cl)c4)c3c2)cn1 |  |  |  |  | 4.79 µM | > 100 µM | 2.22 µM | > 100 µM |  |  |  |  | 2.69 µM | > 100 µM |  |  | 0.294 µM | 0.268 µM |  | 
O=C1c2ccccc2-c2c3c(cc4ccnc1c24)OCO3 |  | 12.8 µM |  | 33.3 µM and 33.6 µM |  | > 100 µM |  |  |  | 69.7 µM and > 100 µM | 3.02 µM and 10.2 µM |  |  | 69.2 µM and 8.07 µM |  | 25.9 µM and 17.4 µM |  |  | 26.2 µM and 24.4 µM | 
CC(=O)O.CN1[CH-]N(Cc2ccc(C#N)cc2)c2ccccc21.[Ag+] | > 100 µM | > 100 µM | 18.5 µM | 42.4 µM | > 100 µM | > 100 µM | 18.2 µM | 36 µM | 15.8 µM | 32.8 µM | 18 µM | 32 µM | 16.4 µM | 31 µM | 20.8 µM | 58 µM | 16.7 µM |  | 50.9 µM | 
c1ccc(SC(Sc2ccccc2)=C2CCC2)cc1 |  | > 100 µM |  | > 100 µM |  | > 100 µM |  |  |  | > 100 µM |  | > 100 µM |  | > 100 µM |  | > 100 µM |  |  |  | > 100 µM
CCOC(=O)c1[nH]c2cc(Cl)ccc2c1[C@@H](C(=O)NC(C)(C)C)N(CC)C(=O)CCCCC#Cc1cccc2c1CN(C1CCC(=O)NC1=O)C2=O (some centres not stated) | < 0.0104 µM | 0.0723 µM | 2.55 µM | 18.5 µM | 0.901 µM | > 100 µM | < 0.01 µM | 1.68 µM | < 0.01 µM | 23.5 µM | 2.65 µM | 16.1 µM | 1.56 µM | 5.51 µM | 3.93 µM | 21.2 µM | 0.0343 µM |  |  | 
Cc1ccc(S(=O)(=O)ON2C(=O)c3cccc4cc([N+](=O)[O-])cc(c34)C2=O)cc1 |  |  |  | > 100 µM |  | > 100 µM |  | > 100 µM |  | > 100 µM |  | > 100 µM |  | > 100 µM |  | > 100 µM |  |  | > 100 µM | > 100 µM
CN(C)c1ccc(/C=c2\sc3nnc(-c4ccco4)n3c2=O)cc1 |  | > 100 µM |  | > 100 µM |  | > 100 µM |  |  |  | > 100 µM |  | > 100 µM |  | > 100 µM |  | > 100 µM |  |  | > 100 µM | 
CCN(CC)CCN(CC)CC.CCN(CC)CCN(CC)CC.[Cu+2].[Cu+2].[O-][Cl+3]([O-])([O-])[O-].[OH3+].[OH3+] | 22.4 µM | 37.9 µM | 40.2 µM | > 100 µM | 18.2 µM | 34.2 µM |  |  | 27.7 µM | 51.2 µM | 96.7 µM | > 100 µM | 18.3 µM | 36.4 µM | 31.1 µM | 77.8 µM |  | > 100 µM |  | > 100 µM
CCC[CH2][Sn](=[O])[CH2]CCC |  |  | > 50 µM | > 50 µM | > 50 µM | > 50 µM |  |  | > 50 µM | > 50 µM | > 50 µM | > 50 µM | > 50 µM | > 50 µM | > 50 µM | > 50 µM | > 50 µM | > 50 µM | > 50 µM | > 50 µM
CSc1ccc(C2=NN(C(C)=O)C(c3ccc(-c4cc(Cl)c(Cl)cc4Cl)o3)C2)cc1 (configuration not stated) |  |  | 10.3 µM | 21.9 µM | 16.9 µM | 35.7 µM | 11.3 µM | 23.3 µM | 13.4 µM | 26.8 µM | 24.8 µM | 50.3 µM | 10.2 µM | 21.8 µM | 15.4 µM | 29.6 µM | 13.9 µM |  | 27.3 µM | 
COc1ccccc1C#Cc1ccccc1C#Cc1ccc(OCCCCCCOc2ccccc2C#Cc2ccccc2C#Cc2ccccc2OC)cc1 | > 100 µM | > 100 µM | > 100 µM | > 100 µM | > 100 µM | > 100 µM | > 100 µM | > 100 µM | > 100 µM | > 100 µM | > 100 µM | > 100 µM | > 100 µM | > 100 µM | > 100 µM | > 100 µM | > 100 µM |  | > 100 µM | 
Cc1cccc(-c2nnc3s/c(=C\c4ccc(N(C)C)cc4)c(=O)n23)c1 |  | > 100 µM |  | > 100 µM |  | > 100 µM |  |  |  | > 100 µM |  | > 100 µM |  | > 100 µM |  | > 100 µM |  |  | > 100 µM | 
COc1cc2nc(Nc3cccc(Cl)c3)nc(N)c2cc1OC | 6.57 µM | 20.1 µM | 2.34 µM | 6.35 µM | 4.07 µM | 15.7 µM | 4.28 µM | 14.5 µM | 10.7 µM | 26.3 µM | 14.2 µM | 37.8 µM | 13 µM | 25.7 µM | 14.2 µM | 33.2 µM | 16 µM |  | 29.5 µM | 
Cc1ccc(/C=C/C(=O)c2ccc(Cl)c(Cl)c2)cc1 |  | > 100 µM |  | > 100 µM |  | > 100 µM |  |  |  | > 100 µM |  | > 100 µM |  | > 100 µM |  | > 100 µM |  |  | > 100 µM | > 100 µM
